ChEMBL document CHEMBL1781873, “Synthesis and antibacterial property of pyrrolopyrano quinolinones and pyrroloquinolines” (2011)
Converted amounts (≈) assume the structure as drawn. The source made the active and inactive calls. The calls are words filed in the database; no cut-off is given here.

How the values were obtained:
[1] = tested on: Salmonella typhi; assay: Antibacterial activity against Salmonella typhi at 10 ug after 24 hrs by disc diffusion assay; format: functional, Salmonella enterica subsp. enterica serovar Typhi; conditions: Salmonella enterica, read-out: IZ
[2] = tested on: Klebsiella pneumoniae; assay: Antibacterial activity against Klebsiella pneumoniae at 15 ug after 24 hrs by disc diffusion assay; format: functional; conditions: read-out: IZ
[3] = tested on: Escherichia coli; assay: Inhibition of DNA gyrase mRNA expression in Escherichia coli measured up to 24 hrs by RT-PCR; format: functional, organism-based
[4] = tested on: Escherichia coli; assay: Antibacterial activity against Escherichia coli after 18 to 20 hrs by broth micro dilution assay; format: functional
[5] = tested on: Bacillus subtilis; assay: Antibacterial activity against Bacillus subtilis at 20 ug after 24 hrs by disc diffusion assay; format: functional; conditions: read-out: IZ
[6] = tested on: Pseudomonas aeruginosa; assay: Antibacterial activity against Pseudomonas aeruginosa after 18 to 20 hrs by broth micro dilution assay; format: functional
[7] = tested on: Bacillus subtilis; assay: Antibacterial activity against Bacillus subtilis after 18 to 20 hrs by broth micro dilution assay; format: functional
[8] = tested on: Pseudomonas aeruginosa; assay: Antibacterial activity against Pseudomonas aeruginosa at 20 ug after 24 hrs by disc diffusion assay; format: functional; conditions: read-out: IZ
[9] = tested on: Staphylococcus aureus; assay: Antibacterial activity against Staphylococcus aureus at 5 ug after 24 hrs by disc diffusion assay; format: functional; conditions: read-out: IZ
[10] = tested on: Escherichia coli; assay: Inhibition of Escherichia coli DNA gyrase -mediated DNA relaxation using pBR322 DNA as substrate at […] after 1 hrs by agarose gel electrophoresis
[11] = tested on: Pseudomonas aeruginosa; assay: Antibacterial activity against Pseudomonas aeruginosa at 5 ug after 24 hrs by disc diffusion assay; format: functional; conditions: read-out: IZ
[12] = tested on: Salmonella typhi; assay: Antibacterial activity against Salmonella typhi at 5 ug after 24 hrs by disc diffusion assay; format: functional, Salmonella enterica subsp. enterica serovar Typhi; conditions: Salmonella enterica, read-out: IZ
[13] = tested on: Salmonella typhi; assay: Antibacterial activity against Salmonella typhi after 18 to 20 hrs by broth micro dilution assay; format: functional, Salmonella enterica subsp. enterica serovar Typhi; conditions: Salmonella enterica
[14] = tested on: Bacillus subtilis; assay: Antibacterial activity against Bacillus subtilis at 15 ug after 24 hrs by disc diffusion assay; format: functional; conditions: read-out: IZ
[15] = tested on: Klebsiella pneumoniae; assay: Antibacterial activity against Klebsiella pneumoniae at 5 ug after 24 hrs by disc diffusion assay; format: functional; conditions: read-out: IZ
[16] = tested on: Bacillus subtilis; assay: Antibacterial activity against Bacillus subtilis at 10 ug after 24 hrs by disc diffusion assay; format: functional; conditions: read-out: IZ
[17] = tested on: Klebsiella pneumoniae; assay: Antibacterial activity against Klebsiella pneumoniae at 10 ug after 24 hrs by disc diffusion assay; format: functional; conditions: read-out: IZ
[18] = tested on: Pseudomonas aeruginosa; assay: Antibacterial activity against Pseudomonas aeruginosa at 25 ug after 24 hrs by disc diffusion assay; format: functional; conditions: read-out: IZ
[19] = tested on: Escherichia coli; assay: Inhibition of Escherichia coli DNA gyrase assessed as inhibition of DNA supercoiling activity using pBR322 DNA as substrate at […] after 3 hrs by agarose gel electrophoresis
[20] = tested on: Klebsiella pneumoniae; assay: Antibacterial activity against Klebsiella pneumoniae after 18 to 20 hrs by broth micro dilution assay; format: functional
[21] = tested on: Pseudomonas aeruginosa; assay: Antibacterial activity against Pseudomonas aeruginosa at 15 ug after 24 hrs by disc diffusion assay; format: functional; conditions: read-out: IZ
[22] = tested on: Pseudomonas aeruginosa; assay: Antibacterial activity against Pseudomonas aeruginosa at 10 ug after 24 hrs by disc diffusion assay; format: functional; conditions: read-out: IZ
[23] = tested on: Salmonella typhi; assay: Antibacterial activity against Salmonella typhi at 25 ug after 24 hrs by disc diffusion assay; format: functional, Salmonella enterica subsp. enterica serovar Typhi; conditions: Salmonella enterica, read-out: IZ
[24] = tested on: Staphylococcus aureus; assay: Antibacterial activity against Staphylococcus aureus at 15 ug after 24 hrs by disc diffusion assay; format: functional; conditions: read-out: IZ
[25] = tested on: Staphylococcus aureus; assay: Antibacterial activity against Staphylococcus aureus after 18 to 20 hrs by broth micro dilution assay; format: functional
[26] = tested on: Escherichia coli; assay: Antibacterial activity against Escherichia coli at 20 ug after 24 hrs by disc diffusion assay; format: functional; conditions: read-out: IZ
[27] = tested on: Staphylococcus aureus; assay: Antibacterial activity against Staphylococcus aureus at 20 ug after 24 hrs by disc diffusion assay; format: functional; conditions: read-out: IZ
[28] = tested on: Escherichia coli; assay: Antibacterial activity against Escherichia coli at 5 ug after 24 hrs by disc diffusion assay; format: functional; conditions: read-out: IZ
[29] = tested on: Escherichia coli; assay: Antibacterial activity against Escherichia coli at 10 ug after 24 hrs by disc diffusion assay; format: functional; conditions: read-out: IZ
[30] = tested on: Staphylococcus aureus; assay: Antibacterial activity against Staphylococcus aureus at 25 ug after 24 hrs by disc diffusion assay; format: functional; conditions: read-out: IZ
[31] = tested on: Klebsiella pneumoniae; assay: Antibacterial activity against Klebsiella pneumoniae at 20 ug after 24 hrs by disc diffusion assay; format: functional; conditions: read-out: IZ
[32] = tested on: Bacillus subtilis; assay: Antibacterial activity against Bacillus subtilis at 25 ug after 24 hrs by disc diffusion assay; format: functional; conditions: read-out: IZ
[33] = tested on: Escherichia coli; assay: Antibacterial activity against Escherichia coli at 25 ug after 24 hrs by disc diffusion assay; format: functional; conditions: read-out: IZ
[34] = tested on: Klebsiella pneumoniae; assay: Antibacterial activity against Klebsiella pneumoniae at 25 ug after 24 hrs by disc diffusion assay; format: functional; conditions: read-out: IZ
[35] = tested on: Salmonella typhi; assay: Antibacterial activity against Salmonella typhi at 15 ug after 24 hrs by disc diffusion assay; format: functional, Salmonella enterica subsp. enterica serovar Typhi; conditions: Salmonella enterica, read-out: IZ
[36] = tested on: Salmonella typhi; assay: Antibacterial activity against Salmonella typhi at 20 ug after 24 hrs by disc diffusion assay; format: functional, Salmonella enterica subsp. enterica serovar Typhi; conditions: Salmonella enterica, read-out: IZ
[37] = tested on: Escherichia coli; assay: Antibacterial activity against Escherichia coli at 15 ug after 24 hrs by disc diffusion assay; format: functional; conditions: read-out: IZ
[38] = tested on: Staphylococcus aureus; assay: Antibacterial activity against Staphylococcus aureus at 10 ug after 24 hrs by disc diffusion assay; format: functional; conditions: read-out: IZ

CCC1[C@@H]2Nc3ccc(Cl)cc3C(c3ccccc3)[C@H]2CN1OS(=O)(=O)c1ccc(C)cc1 (some centres not stated)
zone of inhibition at 10 µg/disc [1]: 16 mm
zone of inhibition at 15 µg/disc [2]: 30 mm
inhibition of gyrase mRNA expression (active/not active) [3]: Active
MIC50 [4]: 128 mg/L (≈ 265 µM)
MIC90 [4]: 128 mg/L (≈ 265 µM)
zone of inhibition at 20 µg/disc [5]: 10 mm
MIC50 [6]: 128 mg/L (≈ 265 µM)
MIC90 [6]: 128 mg/L (≈ 265 µM)
MIC50 [7]: 128 mg/L (≈ 265 µM)
MIC90 [7]: 128 mg/L (≈ 265 µM)
zone of inhibition at 20 µg/disc [8]: 22 mm
zone of inhibition at 5 µg/disc [9]: 9 mm
inhibition [10]: Active
zone of inhibition at 5 µg/disc [11]: 10 mm
zone of inhibition at 5 µg/disc [12]: 10 mm
MIC50 [13]: 128 mg/L (≈ 265 µM)
MIC90 [13]: 128 mg/L (≈ 265 µM)
zone of inhibition at 15 µg/disc [14]: 9 mm
zone of inhibition at 5 µg/disc [15]: 20 mm
zone of inhibition at 10 µg/disc [16]: 7 mm
zone of inhibition at 10 µg/disc [17]: 26 mm
zone of inhibition at 25 µg/disc [18]: 24 mm
DNA gyrase inhibition (active/inactive) [19]: Active
MIC50 [20]: 128 mg/L (≈ 265 µM)
MIC90 [20]: 128 mg/L (≈ 265 µM)
zone of inhibition at 15 µg/disc [21]: 17 mm
zone of inhibition at 10 µg/disc [22]: 16 mm
zone of inhibition at 25 µg/disc [23]: 22 mm
zone of inhibition at 15 µg/disc [24]: 13 mm
MIC50 [25]: 128 mg/L (≈ 265 µM)
MIC90 [25]: 128 mg/L (≈ 265 µM)
zone of inhibition at 20 µg/disc [26]: 20 mm
zone of inhibition at 20 µg/disc [27]: 14 mm
zone of inhibition at 5 µg/disc [28]: 10 mm
zone of inhibition at 10 µg/disc [29]: 16 mm
zone of inhibition at 25 µg/disc [30]: 17 mm
zone of inhibition at 20 µg/disc [31]: 34 mm
zone of inhibition at 25 µg/disc [32]: 12 mm
zone of inhibition at 25 µg/disc [33]: 23 mm
zone of inhibition at 25 µg/disc [34]: 36 mm
zone of inhibition at 15 µg/disc [35]: 18 mm
zone of inhibition at 20 µg/disc [36]: 20 mm
zone of inhibition at 15 µg/disc [37]: 18 mm
zone of inhibition at 10 µg/disc [38]: 12 mm

CCC1[C@H]2c3c(n(C)c4ccccc4c3=O)OC(c3ccccc3)[C@@H]2CN1OS(=O)(=O)c1ccc(C)cc1 (mixture of isomers)
zone of inhibition at 10 µg/disc [1]: 16 mm
zone of inhibition at 15 µg/disc [2]: 30 mm
inhibition of gyrase mRNA expression (active/not active) [3]: Active
MIC50 [4]: 128 mg/L
MIC90 [4]: 128 mg/L
zone of inhibition at 20 µg/disc [5]: 7 mm
MIC50 [6]: 128 mg/L
MIC90 [6]: 128 mg/L
MIC50 [7]: 128 mg/L
MIC90 [7]: 128 mg/L
zone of inhibition at 20 µg/disc [8]: 20 mm
zone of inhibition at 5 µg/disc [9]: 20 mm
inhibition [10]: Active
zone of inhibition at 5 µg/disc [11]: 10 mm
zone of inhibition at 5 µg/disc [12]: 10 mm
MIC50 [13]: 128 mg/L
MIC90 [13]: 128 mg/L
zone of inhibition at 15 µg/disc [14]: 6 mm
zone of inhibition at 5 µg/disc [15]: 20 mm
zone of inhibition at 10 µg/disc [17]: 26 mm
zone of inhibition at 25 µg/disc [18]: 23 mm
DNA gyrase inhibition (active/inactive) [19]: Active
MIC50 [20]: 128 mg/L
MIC90 [20]: 128 mg/L
zone of inhibition at 15 µg/disc [21]: 16 mm
zone of inhibition at 10 µg/disc [22]: 14 mm
zone of inhibition at 25 µg/disc [23]: 24 mm
zone of inhibition at 15 µg/disc [24]: 26 mm
MIC50 [25]: 128 mg/L
MIC90 [25]: 128 mg/L
zone of inhibition at 20 µg/disc [26]: 22 mm
zone of inhibition at 20 µg/disc [27]: 30 mm
zone of inhibition at 5 µg/disc [28]: 12 mm
zone of inhibition at 10 µg/disc [29]: 14 mm
zone of inhibition at 25 µg/disc [30]: 36 mm
zone of inhibition at 20 µg/disc [31]: 34 mm
zone of inhibition at 25 µg/disc [32]: 9 mm
zone of inhibition at 25 µg/disc [33]: 23 mm
zone of inhibition at 25 µg/disc [34]: 36 mm
zone of inhibition at 15 µg/disc [35]: 18 mm
zone of inhibition at 20 µg/disc [36]: 22 mm
zone of inhibition at 15 µg/disc [37]: 16 mm
zone of inhibition at 10 µg/disc [38]: 24 mm
